Source: patent publication US10111854B2, “Synthesis and use of amine-containing flavonoids as potent anti-leishmanial agents” (The Hong Kong Polytechnic University, priority 2014, dated 2018)

Assays:
[1] = system: L. amazonensis LV78 amastigotes; experiment: Anti-amastigote activity in infected PEM, L. amazonensis LV78; assay type: cell-based; settings: for IC50: Leishmania amazonensis, 72 h, infected PEM, 3 days, Giemsa; for Selective index (a)/(b): IC50 RAW264.7 over IC50 L. amazonensis LV78 amastigotes
Experimental: (§1) Mouse peritoneal elicited macrophages (PEM) were obtained as previously described (2). A round cover slip (12 mm in diameter) was placed into each well of 24-well culture plate. Mouse PEM were resuspended in supplemented DMEM media containing 10% heat inactivated FBS (v/v), 100 U/mL penicillin and 100 μg/mL streptomycin and seeded into each well at a cell density of 1×10^5 cells per 500 μL. Macrophages were allowed to attach overnight. Non-adherent cells were removed by gentle washing with un-supplemented DMEM media twice. Adherent macrophages were infected with late-log promastigotes at a parasite-to-macrophage ratio of 20:1 overnight at 37° C. with 5% CO2. Non-internalized promastigotes were removed by washing twice with un-supplemented DMEM media. Infected macrophages were further incubated in 500 μL of supplemented DMEM media in the presence or absence of FM for 72 hours at 37° C. After incubation, cover slips were stained with Giemsa and the percentage of macrophages infected and number of amastigotes per 100 macrophages was enumerated.
(§2) PEM cells were infected with late-log promastigotes (L. amazonensis LV78, L. braziliensis UA847, L. donovani HU3, L. donovani 39) for 24 hr at 37° C. Infected macrophages were then treated with various antileishmanials and incubated for 3 days at 37° C. After 3 days, the cover slips were stained with Giemsa. The number of amastigotes per 100 macrophages were determined and used to calculate IC50 values.

[2] = Cytotoxicity, L929 fibroblasts; assay type: cell-based, mouse; settings: mouse
Experimental: (§3) IC50 values of known antileishmanials and the amine-containing flavonoid monomers of the present invention to promastigotes (L. amazonensis LV78, L major FV1, L. donovani HU3, L. donovani 39), macrophages (Raw 264.7 and PEM) and mouse fibroblast (L929) were determined. The anti-promastigotes activities and cytotoxicity of the amine-containing flavonoid monomers of the invention are shown in Table 1.

[3] = system: L. amazonensis LV78 promastigotes; experiment: Anti-promastigote activity (MTS assay), L. amazonensis LV78; assay type: cell-based; settings: Leishmania amazonensis, 72 hours
Experimental: (§4) Promastigotes of visceral L. donovani Ld39 and LdHU3, and cutaneous L. amazonensis LV78, L. braziliensis UA847 and L. major FV1 were employed in the study. All strains were cultured in Schneider's Drosophila Medium (Invitrogen), pH 6.9 supplemented with 10% (v/v) heat inactivated fetal bovine serum (Hyclone) with 4 mM glutamine (Sigma) and 25 μg/mL gentamicin solution (Invitrogen) at 27° C. for 4 days. RAW264.7 cells were cultured in supplemented DMEM media with 10% heat inactivated FBS and 100 U/mL penicillin and 100 μg/mL of streptomycin. They were maintained at 37° C. in a humidified atmosphere with 5% CO2. The cells were split constantly after a confluent monolayer has been formed. The cells were harvested by a cell scraper.
(§5) Anti-promastigote activity was determined according to previous procedures (1) by Cell Titer 96® Aqueous Assay (Promega) that employed a tetrazolium compound. Promastigotes were seeded into 96-well flat bottom microtiter plate at 1×10^5 cells per well in a final volume of 100 μL medium and incubated with a series of concentrations of synthetic FM. Parasites were incubated at 27° C. for 72 hours. After 72 hours of incubation, 10 μL of MTS:PMS mixture [MTS:2-(4,5-Dimethylthiazol-2-yl-)-5-[3-(carboxymethoxy)phenyl]-2-(4-sulfophenyl)-2H-tetrazolium); PMS: phenazine methosulfate both purchased from Sigma] was added into each well of microtiter plate. The plate was then incubated at 27° C. for 4 hours for color development. After 4 hours of incubation, the OD values were determined at 490 nm using automatic microtiter plate reader (Bio-Rad).
as §3

[4] = system: L. amazonensis and L. donovani HU3 promastigotes and amastigotes; experiment: Anti-promastigote and anti-amastigote activity of FM09, FM01 and FM05 derivatives; assay type: cell-based, Leishmania; settings: stage and strain not specified; read-out: IC50, anti-promastigote and anti-amastigote activity (Table 3C)
Experimental: Derivatives of FM09, FM01 and FM05 were synthesized and their anti-promastigote and anti-amastigote activity were determined (Table 3C). Many amine-containing flavonoid monomers have IC50 less than 5 μM, including FM09a, FM09b, FM09c, FM09e, FM09h, FM09i, FM09k, FM09l, FM01b and FM05b.

[5] = system: L. donovani HU3 promastigotes; experiment: Anti-promastigote activity (MTS assay), L. donovani HU3; assay type: cell-based; settings: Leishmania donovani, 72 hours
Experimental: as §4, §5, §3

[6] = system: L. donovani HU3 amastigotes; experiment: Anti-amastigote activity in infected PEM, L. donovani HU3; assay type: cell-based; settings: for IC50: Leishmania donovani, 72 h, infected PEM, 3 days, Giemsa, SSG-sensitive
Experimental: as §1, §2

[7] = system: L. donovani Ld39 amastigotes (SSG-resistant); experiment: Anti-amastigote activity in infected PEM, L. donovani Ld39; assay type: cell-based; settings: for IC50: Leishmania donovani, 72 h, infected PEM, 3 days, Giemsa, SSG-resistant
Experimental: as §1, §2

[8] = system: promastigotes (L. amazonensis LV78, L major FV1, L. donovani HU3, L. donovani 39); experiment: Anti-promastigote activity, strain not given; assay type: cell-based; settings: Leishmania amazonensis; strain not specified; read-out: IC50 against promastigotes
Experimental: as §5, §3

[9] = system: L. donovani Ld39 promastigotes; experiment: Anti-promastigote activity (MTS assay), L. donovani Ld39; assay type: cell-based; settings: Leishmania donovani, 72 hours
Experimental: as §4, §5, §3

[10] = system: amastigotes (L. amazonensis LV78, L. braziliensis UA847, L. donovani HU3, L. donovani 39); experiment: Anti-amastigote activity, strain not given; assay type: cell-based; settings: strain not specified; visceral and cutaneous Leishmania; read-out: IC50 against amastigotes
Experimental: as §1, §2

[11] = system: L. major FV1 promastigotes; experiment: Anti-promastigote activity (MTS assay), L. major FV1; assay type: cell-based; settings: Leishmania major, 72 hours
Experimental: as §4, §5, §3

[12] = Cytotoxicity, peritoneal elicited macrophages (PEM); assay type: cell-based, mouse; settings: mouse, Cytotoxicity IC50, PEM
Experimental: as §1, §3

Row | Structure (SMILES) | IC50 [1] | IC50 [2] | IC50 [3] | IC50 [4] | IC50 [5] | IC50 [6] | Selective index (a)/(b) [1] | IC50 [7] | IC50 [8] | IC50 [9] | IC50 [10] | IC50 [11] | Selective index (a)/(b), (a) measured using PEM ([1]; IC50 PEM over IC50 L. amazonensis LV78 amastigotes) | Selective index (a)/(c), (a) measured using PEM ([7]; IC50 PEM over IC50 L. donovani Ld39 amastigotes) | IC50 [12] | Selective index (a)/(c) ([7]; IC50 RAW264.7 over IC50 L. donovani Ld39 amastigotes) | Selective index (a)/(b) ([6]; IC50 RAW264.7 over IC50 L. donovani HU3 amastigotes)
1 | COc1ccnc(CN2CCN(CCOc3ccc(-c4cc(=O)c5ccccc5o4)cc3)CC2)c1OC [FM01b, 2-(4-(2-(4-((3,4-dimethoxypyridin-2-yl)methyl)piperazin-1-yl)ethoxy)phenyl)-4H-chromen-4-one] | 2.42 ± 0.69 µM | 95.8 ± 4.25 µM | 3.99 ± 0.99 µM | < 5 µM | 6.15 ± 1.47 µM | 3.5 ± 1.01 µM |  |  |  |  |  |  |  |  |  |  | 
2 | O=c1cc(-c2ccc(OC[C@@H]3CCCN3Cc3ccncc3)cc2)oc2ccccc12 [FM18, (S)-2-(4-((1-(pyridin-4-ylmethyl)pyrrolidin-2-yl)methoxy)phenyl)-4H-chromen-4-one] | 3.1 ± 0.1 µM | 39.1 ± 2.5 µM | 5.5 ± 1 µM |  | 1.9 ± 0.4 µM | > 9 µM | 17.0 | > 10 µM | < 5 µM | 2.7 ± 0.9 µM | < 5 µM | 4.9 ± 0.4 µM |  |  |  |  | 
3 | O=c1cc(-c2ccc(OCCOCCNCc3ccncc3)cc2)oc2ccccc12 [FM08, 2-(4-(2-(2-((pyridin-4-ylmethyl)amino)ethoxy)ethoxy)phenyl)-4H-chromen-4-one] | 6.7 ± 1.8 µM | > 33 µM | 8.3 ± 1.9 µM |  | 1.4 ± 0.4 µM | > 10 µM |  | > 10 µM | < 5 µM | 2.7 ± 0.9 µM |  | 9.5 ± 1.2 µM |  |  |  |  | 
4 | Cc1cccc(CN(CCOCCOc2ccc(-c3cc(=O)c4ccccc4o3)cc2)Cc2cccc(C)n2)n1 [FM09e, 2-(4-(2-(2-(bis((6-methylpyridin-2-yl)methyl)amino)ethoxy)ethoxy)phenyl)-4H-chromen-4-one] | 2.4 ± 0.37 µM | 18.8 ± 0.95 µM | 7.41 ± 1.76 µM | < 5 µM | 4.9 ± 0.78 µM | 3.5 ± 0.48 µM |  |  |  |  |  |  |  |  |  |  | 
5 | O=c1cc(-c2ccc(OCCOCCN(CCOCCO)Cc3ccncc3)cc2)oc2ccccc12 [FM21, 2-(4-(2-(2-((2-(2-hydroxyethoxy)ethyl)(pyridin-4-ylmethyl)amino)ethoxy)ethoxy)phenyl)-4H-chromen-4-one] | 4.5 µM | 24 µM | 47.8 ± 18.7 µM |  |  |  |  | 0.33 µM |  | 3.4 ± 0.9 µM |  | 22.6 ± 10.9 µM | 13 | 177 | 58.5 ± 4.3 µM |  | 
6 | COc1ccnc(CN(CCOCCOc2ccc(-c3cc(=O)c4ccccc4o3)cc2)Cc2nccc(OC)c2OC)c1OC [FM09a, 2-(4-(2-(2-(bis((3,4-dimethoxypyridin-2-yl)methyl)amino)ethoxy)ethoxy)phenyl)-4H-chromen-4-one] | 0.56 ± 0.21 µM |  | 0.32 ± 0.05 µM | < 5 µM | 0.47 ± 0.07 µM |  |  |  |  |  |  |  |  |  | 10.4 ± 0.64 µM |  | 
7 | O=C(COc1ccc(-c2cc(=O)c3ccccc3o2)cc1)N1CCCN(Cc2ccncc2)CC1 [FM15, 2-(4-(2-oxo-2-(4-(pyridin-4-ylmethyl)-1,4-diazepan-1-yl)ethoxy)phenyl)-4H-chromen-4-one] | > 9 µM | 14.9 ± 2.6 µM | 4.8 ± 1.3 µM |  | 1.5 ± 0.3 µM | > 10 µM |  | 3.3 µM | < 5 µM | 1.8 ± 0.7 µM | < 5 µM | 6.4 ± 1.7 µM |  |  |  |  | 
8 | O=c1cc(-c2ccc(OCCN3CCCN(Cc4ccncc4)CC3)cc2)oc2ccccc12 [FM14, 2-(4-(2-(4-(pyridin-4-ylmethyl)-1,4-diazepan-1-yl)ethoxy)phenyl)-4H-chromen-4-one] | 1.9 ± 0.5 µM | 10.6 µM | 1.4 ± 0.3 µM |  | 0.3 ± 0.1 µM | > 7 µM | 11.4 | 8.4 µM | < 5 µM | 1.4 ± 0.9 µM | < 5 µM | 1.6 ± 0.6 µM |  |  |  |  | 
9 | O=c1cc(-c2ccc(OCCOCCNCc3ccccc3)cc2)oc2ccccc12 [FM04, 2-(4-(2-(2-(benzylamino)ethoxy)ethoxy)phenyl)-4H-chromen-4-one] | 3.7 ± 1.7 µM | > 33 µM | 2.8 ± 0.8 µM |  | 2.4 ± 0.5 µM | > 5 µM |  | 6.8 µM | < 5 µM | 2.6 ± 0.5 µM | < 5 µM | 3.8 ± 0.7 µM |  |  | 20.3 µM |  | 
10 | CN(CCOc1ccc(-c2cc(=O)c3ccccc3o2)cc1)CCN(C)Cc1ccncc1 [FM02, 2-(4-(2-(methyl(2-(methyl(pyridin-4-ylmethyl)amino)ethyl)amino)ethoxy)phenyl)-4H-chromen-4-one] | 4.7 ± 1 µM | 22.1 ± 4 µM | 4.6 ± 0.6 µM |  | 1.8 ± 0.3 µM | > 10 µM |  | 9.6 µM | < 5 µM | 2.1 ± 0.6 µM | < 5 µM | 5.4 ± 1 µM |  |  | 22 µM |  | 
11 | O=c1cc(-c2ccc(OCCOCCN(Cc3cccnc3)Cc3cccnc3)cc2)oc2ccccc12 [FM09b, 2-(4-(2-(2-(bis(pyridin-3-ylmethyl)amino)ethoxy)ethoxy)phenyl)-4H-chromen-4-one] |  |  |  | < 5 µM |  |  |  |  |  |  |  |  |  |  |  |  | 
12 | CN(C)CCOCCOc1ccc(-c2cc(=O)c3ccccc3o2)cc1 [FM06, 2-(4-(2-(2-(dimethylamino)ethoxy)ethoxy)phenyl)-4H-chromen-4-one] | 4.5 ± 1.8 µM | > 33 µM | 2 ± 0.3 µM |  | 2.2 ± 0.5 µM | > 10 µM |  | > 10 µM | < 5 µM | 1.1 ± 0.1 µM | < 5 µM | 3.6 ± 0.7 µM |  |  |  |  | 
13 | O=c1cc(-c2ccc(OCCC3CCCCN3Cc3ccncc3)cc2)oc2ccccc12 (stereo not shown) [FM17, 2-(4-(2-(1-(pyridin-4-ylmethyl)piperidin-2-yl)ethoxy)phenyl)-4H-chromen-4-one] | 3.4 ± 0.9 µM | > 100 µM | 0.9 ± 0.3 µM |  | 0.4 ± 0.1 µM | > 10 µM | >29.4 | > 10 µM | < 5 µM | 1.5 ± 0.5 µM | < 5 µM | 2.1 ± 0.5 µM |  |  |  |  | 
14 | O=c1cc(-c2ccc(OCC3CCN(Cc4ccncc4)CC3)cc2)oc2ccccc12 [FM13, 2-(4-((1-(pyridin-4-ylmethyl)piperidin-4-yl)methoxy)phenyl)-4H-chromen-4-one] | 2.5 ± 0.5 µM | > 100 µM | 3.5 ± 1.1 µM |  | 1.1 ± 0.6 µM | > 10 µM | >40 | 3.3 µM | < 5 µM | 0.7 ± 0.2 µM | < 5 µM | 5.7 ± 3.1 µM |  |  |  | >33 | >10
